From patent publication US20060235020A1, “Process for preparing salts of 4-[[5-[(cyclopropylamino)carbonyl]-2-methylphenyl]amino]-5-methyl-N-propylpyrrolo[2,1-f][1,2,4]triazine-6-carboxamide and novel stable forms produced therein” (priority 2005, published 2006)
Where two headings read alike, the source gives them in different places.

Assays:
[1] = Experimental: Moisture sorption isotherms were collected in a VTI SGA-100 Symmetric Vapor Analyzer using approximately 10 mg of sample. The sample was dried at 60° C. until the loss rate of 0.0005 wt %/min was obtained for 10 minutes. The sample was tested at 25° C. (for free base 1 and N-1 HCl salt) or 30° C. (for N-4 HCl salt) and 3 or 4, 5, 15, 25, 35, 45, 50, 65, 75, 85, and 95% RH. Equilibration at each RH was reached when the rate of 0.0003 wt %/min for 35 minutes was achieved or a maximum of 600 minutes.
[2] = slurries in THF, acetonitrile, acetone and DMF/acetone at room temperature
Source text: Form N-4 of the hydrochloric acid salt of the free base I crystallizes from organic solvents, preferably DMF/acetone.

[3] = Stability of the crystals in the solid state; format: physicochemical; details: isolated solid

| SMILES | hygroscopicity / water uptake (moisture-sorption isotherm) ([1]; about 25 to about 75% RH at 30° C.) | hygroscopicity / water uptake (moisture-sorption isotherm) ([1]; about 25 to about 75% RH at 30° C., listed as Form N-4 crystals of free base I) | relative stability of the crystal form in slurries ([2]; listed as Form N-4) | hygroscopicity / water uptake (moisture-sorption isotherm) ([1]; about 25 to about 75% RH at 25° C.) | hygroscopicity / water uptake (moisture-sorption isotherm) ([1]; about 25 to about 75% RH at 25° C., listed as Form N-1 crystals of the hydrochloric acid salt of free base I) | stability in the solid state form [3] | relative stability of the crystal form in slurries ([2]; listed as Form N-1) |
| --- | --- | --- | --- | --- | --- | --- | --- |
| CCCNC(=O)c1cn2ncnc(Nc3cc(C(=O)NC4CC4)ccc3C)c2c1C.Cl [Form N-4 salt, hydrochloric acid salt of 4-[[5-[(cyclopropylamino)carbonyl]-2-methylphenyl]amino]-5-methyl-N-propylpyrrolo[2,1-f][1,2,4]triazine-6-carboxamide] | non-hygroscopic | negligible water uptake | stable form at room temperature |  |  |  |  |
| CCCNC(=O)c1cn2ncnc(Nc3cc(C(=O)NC4CC4)ccc3C)c2c1C.Cl [Form N-1 hydrochloride salt, hydrochloric acid salt of 4-[[5-[(cyclopropylamino)carbonyl]-2-methylphenyl]amino]-5-methyl-N-propylpyrrolo[2,1-f][1,2,4]triazine-6-carboxamide] |  |  |  | non-hygroscopic | negligible water uptake | remain stable in the solid state form | convert to Form N-4 |
